Results taken from patent publication US20260159618A1, “COMPOUND, POLYMERIZABLE COMPOSITION, POLYMER, HOLOGRAPHIC RECORDING MEDIUM, OPTICAL MATERIAL, AND OPTICAL COMPONENT” (Mitsubishi Chemical Corporation, priority 2022, published 2026).
Read-outs that look alike come from different tables or passages of the source. Blank lines part the entries; values can stand above or below the compound they belong to.

Experiments:
[1] = prior-art compounds, background art; cited from earlier work
[2] = Storage stability of the TSS-100 solution, visual observation; format: physicochemical; design: key: ∘: completely dissolved; Δ: cloudy; x: solid remaining in solution; details: solution in Duranate TSS-100 stored at room temperature for 10 days, visually observed
Experimental: (§1) When 0.63 g of polymerizable monomers M-1 to M-11 and R-1 to R-4 were dissolved in 2.53 g of Duranate (registered trademark) TSS-100, the state of the solution was visually observed and the solubility was evaluated as ∘ (completely dissolved), Δ (cloudy), or x (solid remaining in solution). In addition, the state of each solution was visually observed when it was stored at room temperature for 10 days and the storage stability was evaluated as ∘ (completely dissolved), Δ (cloudy), or x (solid remaining in solution).

[3] = Solubility in Duranate TSS-100, visual observation; format: physicochemical; details: 0.63 g monomer dissolved in 2.53 g Duranate TSS-100, visually observed
Experimental: as §1

[4] = Refractive index measurement of polymerizable monomer (Kalnew precision refractometer); format: physicochemical; design: key to Refractive Index (dash symbol): ⊚: 0.019 or more; ◯: 0.015 or more and less than 0.019; Δ: 0.010 or more and less than 0.015; x: less than 0.010; —: impossible to measure; details: for Refractive Index: 23° C., helium lamp d-line (587.6 nm), calculated for 100% by mass from calibration curve of 10 and 20% by mass test solutions; for Refractive Index (dash symbol): sample not suitable for refractive index measurement
Experimental: The refractive index of the compound M-1 was measured using the following method. The refractive indexes of the polymerizable monomers produced in the Examples and Comparative Examples were also measured using the same method.
A test solution was prepared by dissolving the sample in a mixed solution of 3-phenoxybenzyl acrylate and trimethylolpropane trimethacrylate in a mass ratio of 4:1 to obtain the specified concentration.
Two types of test solutions were prepared, with sample concentrations of 10% by mass and 20% by mass.
The refractive index of each test solution was measured using a Kalnew precision refractometer (manufactured by Shimadzu Corporation, product name: KPR-2000). The temperature of the test solution was 23° C., and the measurement wavelength was helium lamp d-line (587.6 nm). Based on the measurement results, a calibration curve showing the correlation between sample concentration and refractive index was created, and the refractive index when the sample concentration was 100% by mass was calculated from the obtained calibration curve, and was taken as the refractive index of the sample.

SMILES: C=CC(=O)OCCOc1ccc(C2(c3ccc(OCCOC(=O)C=C)cc3)c3ccccc3-c3ccccc32)cc1 [9,9-bis[4-(2-acryloyloxyethoxy)phenyl]fluorene]
Refractive Index [1]: about 1.62

SMILES: C=C(C)C(=O)OCCNC(=O)Oc1c(-c2cccc3c2sc2ccccc23)cc(-c2cccc3c2sc2ccccc23)cc1-c1cccc2c1sc1ccccc12 [Compound M-1]
Storage Stability [2]: ◯
Solubility [3]: ◯
Refractive Index [4]: 1.6818

SMILES: C=C(C)C(=O)OCCNC(=O)Oc1c(-c2cc3ccccc3c3ccccc23)cc(-c2cc3ccccc3c3ccccc23)cc1-c1cc2ccccc2c2ccccc12 [Compound M-2]
Storage Stability [2]: ◯
Solubility [3]: ◯
Refractive Index [4]: 1.6898

SMILES: C=CC(=O)OCCNC(=O)Oc1c(-c2cccc3c2sc2ccccc23)cc(-c2cccc3c2sc2ccccc23)cc1-c1cccc2c1sc1ccccc12 [Compound M-3]
Storage Stability [2]: ◯
Solubility [3]: ◯
Refractive Index [4]: 1.6891

SMILES: C=CC(=O)OCCNC(=O)Oc1c(-c2cc3ccccc3c3ccccc23)cc(-c2cc3ccccc3c3ccccc23)cc1-c1cc2ccccc2c2ccccc12 [Compound M-4]
Storage Stability [2]: ◯
Solubility [3]: ◯
Refractive Index [4]: 1.6894

SMILES: C=C(C)C(=O)OCCNC(=O)Oc1c(-c2ccc3ccccc3c2)cc(-c2ccc3ccccc3c2)cc1-c1ccc2ccccc2c1 [Compound M-5]
Storage Stability [2]: ◯
Solubility [3]: ◯
Refractive Index [4]: 1.6798

SMILES: C=C(C)C(=O)OCCOCCNC(=O)Oc1c(-c2cc3ccccc3c3ccccc23)cc(-c2cc3ccccc3c3ccccc23)cc1-c1cc2ccccc2c2ccccc12 [Compound M-6]
Storage Stability [2]: ◯
Solubility [3]: ◯
Refractive Index [4]: 1.7013

SMILES: C=CC(=O)OCCNC(=O)OCCOc1c(-c2cc3ccccc3c3ccccc23)cc(-c2cc3ccccc3c3ccccc23)cc1-c1cc2ccccc2c2ccccc12 [Compound M-7]
Storage Stability [2]: ◯
Solubility [3]: ◯
Refractive Index [4]: 1.7104

SMILES: C=C(C)C(=O)OCCNC(=O)OCCOc1c(-c2cc3ccccc3c3ccccc23)cc(-c2cc3ccccc3c3ccccc23)cc1-c1cc2ccccc2c2ccccc12 [Compound M-8]
Storage Stability [2]: ◯
Solubility [3]: ◯
Refractive Index [4]: 1.7042

SMILES: C=C(C)C(=O)OCCOCCNC(=O)OCCOc1c(-c2cc3ccccc3c3ccccc23)cc(-c2cc3ccccc3c3ccccc23)cc1-c1cc2ccccc2c2ccccc12 [Compound M-9]
Storage Stability [2]: ◯
Solubility [3]: ◯
Refractive Index [4]: 1.6975

SMILES: C=CC(=O)OCCOc1c(-c2cc3ccccc3c3ccccc23)cc(-c2cc3ccccc3c3ccccc23)cc1-c1cc2ccccc2c2ccccc12 [Compound M-10]
Storage Stability [2]: ◯
Solubility [3]: ◯
Refractive Index [4]: 1.7323

SMILES: C=CC(=O)OCCCOc1c(-c2cc3ccccc3c3ccccc23)cc(-c2cc3ccccc3c3ccccc23)cc1-c1cc2ccccc2c2ccccc12 [Compound M-11]
Storage Stability [2]: ◯
Solubility [3]: ◯
Refractive Index [4]: 1.7316

SMILES: C=CC(=O)OCCNC(=O)Oc1ccc(-c2cccc3c2sc2ccccc23)cc1-c1cccc2c1sc1ccccc12 [Compound R-1, reference compound]
Storage Stability [2]: Δ
Refractive Index [4]: 1.6762

Storage Stability [2]: Δ
Refractive Index [4]: 1.7056
SMILES: C=CC(=O)Oc1c(-c2cccc3c2sc2ccccc23)cc(-c2cccc3c2sc2ccccc23)cc1-c1cccc2c1sc1ccccc12 [Compound R-2, reference compound]

Refractive Index (dash symbol) [4]: —
SMILES: C=CC(=O)OCCOc1c(-c2cccc3c2sc2ccccc23)cc(-c2cccc3c2sc2ccccc23)cc1-c1cccc2c1sc1ccccc12 [Compound R-3, reference compound]

Refractive Index (dash symbol) [4]: —
SMILES: C=CC(=O)OCCCCOc1c(-c2cccc3c2sc2ccccc23)cc(-c2cccc3c2sc2ccccc23)cc1-c1cccc2c1sc1ccccc12 [Compound R-4, reference compound]
